Read-outs that look alike come from different tables or passages of the source.
Assays:
CYP2C19 = molecular target: T1, CYP2C19 (Homo sapiens, UniProt P33261); assay: CYP450 enzyme inhibition, human liver microsomes, CYP2C19; type: in vitro ADME
T1 construct: incubated with human liver microsomes and test compounds of different concentrations; from tissue; host or cells: human liver microsomes
How it was run: (§1)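 Human liver microsomes were incubated with isoform-specific probe substrates and a range of test compound concentrations, with the reaction started by NADPH. Probe metabolites were quantified by LC-MS/MS to derive enzyme activity, and IC50 values were calculated per isoform.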

CYP2D6 = molecular target: T2, CYP2D6 (Homo sapiens, UniProt P10635); assay: CYP450 enzyme inhibition, human liver microsomes, CYP2D6; type: in vitro ADME
T2 construct: incubated with human liver microsomes and test compounds of different concentrations; from tissue; host or cells: human liver microsomes
How it was run: as §1

CYP2C9 = molecular target: T3, CYP2C9 (Homo sapiens, UniProt P11712); assay: CYP450 enzyme inhibition, human liver microsomes, CYP2C9; type: in vitro ADME
T3 construct: incubated with human liver microsomes and test compounds of different concentrations; from tissue; host or cells: human liver microsomes
How it was run: as §1

cardiac myosin SII = molecular target: T4, cardiac myosin SII (Bos taurus, UniProt Q9BE39); assay: Inhibition of hydrolysis of ATP by cardiac myosin SII; type: biochemical; details: 100 μM compound
T4 construct: purchased Cytoskeleton #MYO3-A
How it was run: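 Bovine cardiac myosin with preformed F-actin in 15 mM Tris-HCl pH 7.5, 10 mM KCl, 2 mM MgCl2, 0.1 mM EGTA; compounds at 100 μM final, ATP from 3 mM working solution, 2 h at 37 °C. Released Pi measured colorimetrically at 650 nm against a Pi standard curve; % inhibition vs. DMSO control.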

CYP1A2 = molecular target: T5, CYP1A2 (Homo sapiens, UniProt P05177); assay: CYP450 enzyme inhibition, human liver microsomes, CYP1A2; type: in vitro ADME
T5 construct: incubated with human liver microsomes and test compounds of different concentrations; from tissue; host or cells: human liver microsomes
T5 sequence (P05177 1-516): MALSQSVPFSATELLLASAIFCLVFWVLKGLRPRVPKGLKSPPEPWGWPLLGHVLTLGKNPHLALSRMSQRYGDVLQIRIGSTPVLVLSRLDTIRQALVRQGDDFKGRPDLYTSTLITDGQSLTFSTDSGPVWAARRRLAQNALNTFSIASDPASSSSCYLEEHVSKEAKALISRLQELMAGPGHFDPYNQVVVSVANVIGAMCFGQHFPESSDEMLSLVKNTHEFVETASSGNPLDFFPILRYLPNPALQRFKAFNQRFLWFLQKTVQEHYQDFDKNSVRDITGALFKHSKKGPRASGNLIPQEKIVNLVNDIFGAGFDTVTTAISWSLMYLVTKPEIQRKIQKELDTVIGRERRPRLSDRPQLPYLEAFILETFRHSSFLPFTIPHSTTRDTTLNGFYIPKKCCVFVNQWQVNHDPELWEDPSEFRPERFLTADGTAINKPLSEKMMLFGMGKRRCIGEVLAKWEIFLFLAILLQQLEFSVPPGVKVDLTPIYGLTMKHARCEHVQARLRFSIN
How it was run: as §1

[1] = tested on: rabbit skeletal muscle myosin; assay: Inhibition of hydrolysis of ATP by rabbit skeletal muscle myosin; type: biochemical
How it was run: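 Actin-activated ATPase: F-actin plus rabbit skeletal myosin II with compound in Tris-HCl pH 7.5/KCl/EGTA/MgCl2, started with ATP (3 mM working stock) and run 60 min at 37 °C. Released Pi measured by CytoPhos absorbance at 650 nm against a phosphate standard curve; IC50 fitted from inhibition relative to uninhibited myosin.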

[2] = inhibition of hydrolysis of ATP, class symbols, read-out: Rabbit skeletal muscle myosin (IC50)
[3] = read-out: IC50 for inhibition of hydrolysis of ATP by rabbit skeletal muscle myosin

T1 sequence (P33261 whole entry): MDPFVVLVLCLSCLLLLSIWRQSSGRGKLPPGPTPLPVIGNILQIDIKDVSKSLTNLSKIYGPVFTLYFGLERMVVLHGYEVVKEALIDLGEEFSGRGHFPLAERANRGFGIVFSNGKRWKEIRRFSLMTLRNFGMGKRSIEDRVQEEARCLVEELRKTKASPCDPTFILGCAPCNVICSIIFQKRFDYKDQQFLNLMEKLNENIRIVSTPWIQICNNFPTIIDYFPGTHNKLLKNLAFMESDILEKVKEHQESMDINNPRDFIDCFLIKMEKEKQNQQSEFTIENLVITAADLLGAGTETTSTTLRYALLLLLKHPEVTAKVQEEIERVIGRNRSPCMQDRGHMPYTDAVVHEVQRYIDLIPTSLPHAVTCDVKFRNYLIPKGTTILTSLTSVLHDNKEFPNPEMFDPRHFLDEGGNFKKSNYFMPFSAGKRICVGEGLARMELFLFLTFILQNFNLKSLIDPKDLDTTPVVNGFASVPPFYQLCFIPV
T2 sequence (P10635 whole entry): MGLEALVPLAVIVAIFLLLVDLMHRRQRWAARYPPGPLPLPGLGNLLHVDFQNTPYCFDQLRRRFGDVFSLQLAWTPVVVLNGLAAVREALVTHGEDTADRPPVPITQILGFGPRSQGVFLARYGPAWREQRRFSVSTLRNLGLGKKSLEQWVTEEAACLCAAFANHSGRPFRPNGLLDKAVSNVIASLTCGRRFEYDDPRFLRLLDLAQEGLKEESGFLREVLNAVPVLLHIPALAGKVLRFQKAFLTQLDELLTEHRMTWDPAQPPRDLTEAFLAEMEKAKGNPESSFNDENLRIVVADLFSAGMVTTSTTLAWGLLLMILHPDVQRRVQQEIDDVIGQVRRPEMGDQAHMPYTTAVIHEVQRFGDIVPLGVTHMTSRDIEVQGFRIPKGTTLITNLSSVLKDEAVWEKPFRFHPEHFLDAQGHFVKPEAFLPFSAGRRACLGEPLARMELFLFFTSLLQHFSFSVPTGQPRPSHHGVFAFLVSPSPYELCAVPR
T4 sequence (Q9BE39 whole entry): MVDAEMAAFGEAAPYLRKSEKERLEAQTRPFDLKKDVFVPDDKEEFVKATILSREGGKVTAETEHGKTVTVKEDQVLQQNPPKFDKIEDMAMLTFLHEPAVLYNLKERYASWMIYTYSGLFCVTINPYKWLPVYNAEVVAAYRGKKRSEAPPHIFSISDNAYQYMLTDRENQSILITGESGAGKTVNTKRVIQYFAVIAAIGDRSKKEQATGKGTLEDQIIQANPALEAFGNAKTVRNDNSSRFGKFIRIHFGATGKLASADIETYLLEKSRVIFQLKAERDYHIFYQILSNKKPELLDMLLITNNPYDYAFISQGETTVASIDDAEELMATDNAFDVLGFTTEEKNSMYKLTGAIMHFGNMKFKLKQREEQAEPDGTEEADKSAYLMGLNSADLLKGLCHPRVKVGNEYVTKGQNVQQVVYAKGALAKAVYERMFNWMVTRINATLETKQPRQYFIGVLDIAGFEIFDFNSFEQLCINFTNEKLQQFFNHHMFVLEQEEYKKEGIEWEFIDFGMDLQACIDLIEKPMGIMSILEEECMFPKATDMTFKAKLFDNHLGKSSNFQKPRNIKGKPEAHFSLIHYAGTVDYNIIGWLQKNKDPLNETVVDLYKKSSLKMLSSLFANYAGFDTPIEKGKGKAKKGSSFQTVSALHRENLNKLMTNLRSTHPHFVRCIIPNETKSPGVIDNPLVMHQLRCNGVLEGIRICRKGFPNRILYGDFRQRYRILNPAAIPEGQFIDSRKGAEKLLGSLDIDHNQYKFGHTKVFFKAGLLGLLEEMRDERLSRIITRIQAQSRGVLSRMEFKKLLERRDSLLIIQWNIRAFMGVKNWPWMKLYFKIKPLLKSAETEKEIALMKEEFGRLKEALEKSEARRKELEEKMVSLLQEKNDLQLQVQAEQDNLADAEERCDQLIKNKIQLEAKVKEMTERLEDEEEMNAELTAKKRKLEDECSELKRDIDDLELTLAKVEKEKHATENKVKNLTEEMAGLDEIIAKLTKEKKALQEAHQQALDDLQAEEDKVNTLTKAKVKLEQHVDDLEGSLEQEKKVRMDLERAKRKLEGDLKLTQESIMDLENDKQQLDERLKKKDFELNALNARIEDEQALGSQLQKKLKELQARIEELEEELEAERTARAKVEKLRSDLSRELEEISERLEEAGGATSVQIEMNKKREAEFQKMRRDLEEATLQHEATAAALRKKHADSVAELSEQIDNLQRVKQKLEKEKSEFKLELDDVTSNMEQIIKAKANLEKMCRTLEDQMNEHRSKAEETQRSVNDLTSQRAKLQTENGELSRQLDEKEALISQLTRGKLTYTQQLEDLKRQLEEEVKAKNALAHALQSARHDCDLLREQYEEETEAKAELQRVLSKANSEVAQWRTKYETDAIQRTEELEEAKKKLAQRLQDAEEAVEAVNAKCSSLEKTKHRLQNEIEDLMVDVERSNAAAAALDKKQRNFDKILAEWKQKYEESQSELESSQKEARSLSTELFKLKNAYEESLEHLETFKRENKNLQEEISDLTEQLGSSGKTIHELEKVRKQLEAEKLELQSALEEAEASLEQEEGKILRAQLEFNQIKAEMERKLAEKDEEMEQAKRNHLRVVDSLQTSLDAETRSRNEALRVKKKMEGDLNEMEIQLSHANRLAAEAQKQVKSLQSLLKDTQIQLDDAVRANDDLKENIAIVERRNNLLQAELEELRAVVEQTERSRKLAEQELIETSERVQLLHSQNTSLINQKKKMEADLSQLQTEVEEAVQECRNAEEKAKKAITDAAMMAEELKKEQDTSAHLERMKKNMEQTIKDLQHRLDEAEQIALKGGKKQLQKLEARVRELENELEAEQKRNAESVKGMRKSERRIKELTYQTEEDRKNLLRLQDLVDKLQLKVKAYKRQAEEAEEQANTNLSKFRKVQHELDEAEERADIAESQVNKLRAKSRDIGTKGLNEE
T4 sequence (P85100 whole entry partner): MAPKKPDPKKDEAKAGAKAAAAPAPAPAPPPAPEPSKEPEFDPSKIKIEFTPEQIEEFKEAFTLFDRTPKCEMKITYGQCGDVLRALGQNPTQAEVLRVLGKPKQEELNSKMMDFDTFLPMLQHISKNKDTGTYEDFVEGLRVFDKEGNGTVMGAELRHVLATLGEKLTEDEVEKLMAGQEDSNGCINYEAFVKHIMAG
T4 sequence (Q3SZE5 whole entry partner): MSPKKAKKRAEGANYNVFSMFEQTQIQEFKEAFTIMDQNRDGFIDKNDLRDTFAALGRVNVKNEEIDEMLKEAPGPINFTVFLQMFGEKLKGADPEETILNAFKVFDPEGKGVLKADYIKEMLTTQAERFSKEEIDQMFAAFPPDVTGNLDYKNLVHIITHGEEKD
T3 sequence (P11712 whole entry): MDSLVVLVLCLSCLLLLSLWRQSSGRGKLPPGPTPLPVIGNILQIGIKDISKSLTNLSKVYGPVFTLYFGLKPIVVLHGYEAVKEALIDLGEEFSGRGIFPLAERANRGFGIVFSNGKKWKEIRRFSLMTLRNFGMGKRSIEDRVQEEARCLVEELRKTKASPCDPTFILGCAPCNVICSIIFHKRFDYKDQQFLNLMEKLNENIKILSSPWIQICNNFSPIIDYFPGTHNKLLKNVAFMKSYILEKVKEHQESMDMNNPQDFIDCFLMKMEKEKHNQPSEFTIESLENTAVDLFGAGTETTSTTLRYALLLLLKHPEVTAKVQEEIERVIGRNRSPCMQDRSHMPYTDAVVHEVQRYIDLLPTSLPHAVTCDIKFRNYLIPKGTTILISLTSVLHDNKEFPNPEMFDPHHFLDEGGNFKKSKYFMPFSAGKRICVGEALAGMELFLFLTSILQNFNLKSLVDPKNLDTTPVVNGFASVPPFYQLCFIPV

Row | Compound | IC50 (CYP2C19) [µM] | IC50 (CYP2D6) [µM] | IC50 (CYP2C9) [µM] | inhibition at 100 µM (cardiac myosin SII) [%] | IC50 (CYP1A2) [µM] | IC50 [1, 2] [µM] | IC50 [1, 3] [µM]
1 | O=C1CCc2ccc(Cn3nc(-c4cnc(OC5CC(F)(F)C5)nc4)ccc3=O)cc21 [Compound 141] | > 30 | > 30 | > 30 | 14 | > 30 | < 2.5 | 0.8
2 | O=C1CCc2ccc(Cn3nc(-c4cnc(OC5COCC5(F)F)nc4)ccc3=O)cc21 (stereo not shown) [Compound 164] | > 30 | > 30 | > 30 | 4 | > 30 | < 2.5 | 
3 | O=C1CCc2ccc(Cn3nc(-c4cnc(OCC(F)F)nc4)ccc3=O)cc21 [Compound 131] | > 30 | > 30 | > 30 |  | > 30 | < 2.5 | 0.4
4 | O=C1CCc2ccc(Cn3nc(-c4cnc(Oc5cncc(Cl)c5)nc4)ccc3=O)cc21 [Compound 151] | > 30 | > 30 | > 30 | -2 | > 30 | < 2.5 | 0.7
5 | O=C1CCc2ccc(Cn3nc(-c4cnc(O[C@H]5CCOC5)nc4)ccc3=O)cc21 [Compound 150] |  |  |  | 15 |  | < 2.5 | 
6 | O=C1CCc2ccc(Cn3nc(-c4cnc(O[C@@H]5CCOC5)nc4)ccc3=O)cc21 [Compound 149] | > 30 | > 30 | > 30 | 10 | > 30 | < 2.5 | 
7 | O=C1CCc2ccc(Cn3nc(-c4cnc(OCC(F)(F)F)nc4)ccc3=O)cc21 [Compound 88] | > 30 | > 30 | > 30 |  | > 30 | < 2.5 | 0.8
8 | O=C1CCc2c(F)cc(Cn3nc(-c4cnc(O[C@H]5CCOC5)nc4)ccc3=O)cc21 [Compound 165] | > 30 | > 30 | > 30 |  | > 30 | 2.5 to 20 | 
9 | O=c1ccc(-c2cnc(OCC(F)(F)F)nc2)nn1Cc1ccc2c(c1)CCC2 [Compound 57] |  |  |  | 1.5 |  | < 2.5 | 0.33
10 | N#CC1(COc2ncc(-c3ccc(=O)n(Cc4ccc5c(c4)C(=O)CC5)n3)cn2)CC1 [Compound 158] | > 30 | > 30 | > 30 | 10 | > 30 | < 2.5 | 
11 | O=C1CCc2c(F)cc(Cn3nc(-c4cnc(OCC(F)F)nc4)ccc3=O)cc21 [Compound 167] | > 30 | > 30 | > 30 | 4 | > 30 | < 2.5 | 0.27
